Assay results taken from ChEMBL document CHEMBL1141913, “Novel 2-aminothiazonaphthalimides as visible light activatable photonucleases: effects of intercalation, heterocyclic-fused area and side chains” (Bioorg Med Chem Lett, 2005).

System: Calf thymus DNA
Experiment: Scatchard binding constant between calf thymus DNA (CT-DNA) measured in 30 mM Tris HCl buffer at pH 7.5
Type: nucleic-acid assay
Conditions: Bos taurus

Binding constant [M⁻¹]	SMILES
25600	CN(C)CCN1C(=O)c2cccc3cc4nc(N)sc4c(c23)C1=O
19800	CN(C)CCN1C(=O)c2cccc3c2c(cc2nc(N)sc23)C1=O
47300	CN(C)CCCN1C(=O)c2cccc3cc4nc(N)sc4c(c23)C1=O
28700	CN(C)CCCN1C(=O)c2cccc3c2c(cc2nc(N)sc23)C1=O
